Assay results reported in patent US20250346604A1, “TRIAZOLOPYRIDAZINE COMPOUNDS USEFUL AS RAC1 INHIBITORS” (Revere Pharmaceuticals, priority 2022, published 2025).
pIC50: −log10 of the molar value. Where two headings read alike, the source gives them in different places.

Experiments:
Rac1 [1] = target: T1, Rac1 (Homo sapiens (Human), UniProt P63000); test: Rac Activation AlphaScreen Assay (RacI AS); format: biochemical
Protocol: 2. Rac Activation AlphaScreen Assay (RacI AS)
AlphaScreen® assays were performed in 96-well microplates in a final reaction volume of 60 μL. Recombinant His-Rac1, recombinant GST-PBD (PAK Binding Domain), donor and acceptor beads (PerkinElmer), and inhibitors were incubated in exchange buffer (20 mM Tris pH 7.5, 50 mM NaCl, 1 mM MgCl2, 1 mM EDTA, 500 nM GTPyS (guanosine 5′-[Y-thio]triphosphate)) at 37° C. Readings were performed on a Tecan M 1000 pro microplate reader after 1 hour. Data was analyzed using the GraphPad Prism software (GraphPad Software, Inc.), and IC50 (dose leading to 50% disruption of complex) was calculated from the dose-response curves.

[2] = tested on: estrogen positive and HER2 positive breast cancer, prostate cancer, melanoma and colorectal cancer; conditions: single agent and in combination with standard of care; cited from earlier work
[3] = tested on: MCF-7 human breast cancer cell line; test: Cell Viability Assay (MCF7); format: cell-based; conditions: MCF7, three days after drug treatment
Protocol: 1. Cell Viability Assay (MCF7)
In order to determine a compound's effect on cell viability, PrestoBlue assays were performed as previously described by Kuhn et al. (2013) with modifications. MCF-7 human breast cancer and IGR-1 human melanoma cell lines were seeded into 384-well plates 24 hours prior to addition of drug. Cells are treated with 0 to 100 μM (concentrations) of compound solubilized in DMSO, adjusting the final concentration of DMSO to 0.5% in the well. Three days after drug treatment, cell viability was measured by adding Cell Titer Glo (Promega.; cat. No. G7570) according to the manufacturer's instructions. Briefly, Cell Titer Glo Substrate is diluted in Cell Titer Glo Buffer making the Cell Titer Glo Reagent. Cell Titer Glo Reagent is added to each well, mixed for 2 minutes to lyse cell, and then luficerase signal is read on a plate reader. Data is analyzed using the GraphPad Prism software (GraphPad Software, Inc.), and IC50 (dose leading to 50% cell death) was calculated from the dose-response curves. The percentage of living cells was then computed by comparison with control wells. Kuhn, Jonas et al., Assay and Drug Development Technologies, March 2013, Label-Free Cytotoxicity Screening Assay by Digital Holographic Microscopy.

[4] = Mouse Liver Microsome (MLM) Stability Assay; format: in vitro ADME; conditions: for microsomal CLint / MLM Clearance (μL/min/mg protein): mouse liver microsomes
Protocol: 5. Mouse Liver Microsome (MLM) Stability Assay
Incubation of test compounds with mouse liver microsomes in the presence of NADPH co-factor was used to assay the in vitro mouse liver microsome metabolic clearance rate. In the presence of the co-factor NADPH, which initiates the reaction, mouse liver microsomes were incubated with test compounds at 37° C. at fixed time intervals. After centrifugation, supernatants were measured by LC/M S. The amount of compound at each time interval was compared to the amount of compound present at the 0 minute timepoint and percentage compound remaining values were calculated. MLM intrinsic clearance (Clint) (μL/min/mg protein) is calculated based on compound half-life.

Rac1 [5] = target: T1, Rac1; test: Rac Activation AlphaScreen Assay (RacI AS); format: biochemical; conditions: wild type Rac1, AlphaLisa assay; read-out: IC50 inhibitory concentration versus wild type Rac1
Rac = Rac (Homo sapiens (Human), UniProt P63000); conditions: versus NSC23766; cited from earlier work
[6] = oral administration in mice; cited from earlier work
over 90 kinases = test: commercial kinase screen (KinaseScan by Eurofins Discovery); format: binding; conditions: at a concentration that was substantially inhibitory for Rac1
Protocol: (§1) The disclosed compounds in general have no or minimal activity against c-M et. Representative compounds were tested in a commercial kinase screen of over 90 kinases (KinaseScan by Eurofins Discovery).

c-M et = c-M et (Homo sapiens (Human), UniProt P08581); test: commercial kinase screen (KinaseScan by Eurofins Discovery), c-Met; format: binding; conditions: at a concentration that was substantially inhibitory for Rac1
Chain of c-M et (P08581 25-1390): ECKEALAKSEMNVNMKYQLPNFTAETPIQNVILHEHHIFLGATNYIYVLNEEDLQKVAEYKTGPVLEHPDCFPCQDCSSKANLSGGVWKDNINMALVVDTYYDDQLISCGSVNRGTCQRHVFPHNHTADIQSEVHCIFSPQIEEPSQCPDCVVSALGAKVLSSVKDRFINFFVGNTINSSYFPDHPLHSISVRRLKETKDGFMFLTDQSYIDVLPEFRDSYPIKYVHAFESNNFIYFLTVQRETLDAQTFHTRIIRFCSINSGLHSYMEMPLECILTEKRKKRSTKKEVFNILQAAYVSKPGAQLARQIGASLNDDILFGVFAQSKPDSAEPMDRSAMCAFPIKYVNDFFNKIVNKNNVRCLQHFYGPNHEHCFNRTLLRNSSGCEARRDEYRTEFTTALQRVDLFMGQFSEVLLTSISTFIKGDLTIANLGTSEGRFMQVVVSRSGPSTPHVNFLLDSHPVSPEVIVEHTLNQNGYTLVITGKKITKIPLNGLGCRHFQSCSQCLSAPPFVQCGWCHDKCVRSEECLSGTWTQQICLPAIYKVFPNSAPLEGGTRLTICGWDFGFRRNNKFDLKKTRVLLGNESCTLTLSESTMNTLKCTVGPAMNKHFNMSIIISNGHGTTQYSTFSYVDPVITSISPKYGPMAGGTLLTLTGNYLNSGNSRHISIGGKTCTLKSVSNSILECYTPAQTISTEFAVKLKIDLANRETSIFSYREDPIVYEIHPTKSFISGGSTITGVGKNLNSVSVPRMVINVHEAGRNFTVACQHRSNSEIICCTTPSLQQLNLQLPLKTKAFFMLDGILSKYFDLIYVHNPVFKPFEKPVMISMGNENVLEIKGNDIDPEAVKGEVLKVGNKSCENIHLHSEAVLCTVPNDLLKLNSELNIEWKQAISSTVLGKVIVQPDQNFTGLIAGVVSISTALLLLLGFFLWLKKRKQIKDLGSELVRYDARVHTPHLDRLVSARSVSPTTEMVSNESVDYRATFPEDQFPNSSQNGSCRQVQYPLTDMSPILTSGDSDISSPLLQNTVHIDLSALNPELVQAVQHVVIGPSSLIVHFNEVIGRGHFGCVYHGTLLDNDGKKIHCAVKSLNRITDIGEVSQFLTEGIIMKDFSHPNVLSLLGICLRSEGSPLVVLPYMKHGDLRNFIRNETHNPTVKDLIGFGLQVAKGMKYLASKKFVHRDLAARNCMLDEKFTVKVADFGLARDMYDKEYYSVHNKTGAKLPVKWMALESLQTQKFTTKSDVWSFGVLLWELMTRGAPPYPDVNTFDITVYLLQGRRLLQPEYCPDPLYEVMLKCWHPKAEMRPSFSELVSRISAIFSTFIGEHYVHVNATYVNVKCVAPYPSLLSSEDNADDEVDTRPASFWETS
Protocol: as §1

[7] = Table 4, comparator compounds, read-out: IC50
[8] = Table 2, Formula I-B, read-out: IC50
[9] = NADPH, 37° C., read-out: MLM Clearance (μL/min/mg protein)
[10] = Table 1, Formula I-A, read-out: Activity
[11] = Table 3, other compounds of Formula I, read-out: IC50

| Structure (SMILES) | pIC50 (Rac1 [1]; read-out: Rac1 IC50) | pIC50 [3] | pIC50 (Rac1 [1]; [10]) | other results |
| --- | --- | --- | --- | --- |
| COc1cc(C(=O)Nc2cccc(-c3ccc4nnc(-c5ccc(C)o5)n4n3)c2)cc(OC)c1OC [Comparator 2, reference compound] | < 5.30 |  |  | pIC50 (Rac1 [1]; [7]): < 5.00 |
| FC(F)(F)c1ccc2c(SCCCCCCn3cnc(CN4CCOCC4)c3)ccnc2c1 [GY S32661] |  |  |  | activity against animal models of cancer [2]: very good activity |
| O=C(Nc1cccc(-c2ccc3nnc(-c4cncs4)n3n2)c1)c1ccc(F)cc1 [Compound 201, 4-fluoro-N-(3-(3-(thiazol-5-yl)-[1,2,4]triazolo[4,3-b]pyridazin-6-yl)phenyl)benzamide] | 6.77 |  |  | pIC50 (Rac1 [1]; [8]): ≥ 6.00; pIC50 ([3]; Homo sapiens, 72 h): 5.51; microsomal CLint [4, 9]: 15.5 µL/min/mg |
| COc1cccc(C(=O)Nc2cccc(-c3ccc4nnc(-c5cncs5)n4n3)c2)c1 [Compound 200] | 6.62 | 5.74 |  | pIC50 (Rac1 [1]; [8]): ≥ 6.00; MLM Clearance (μL/min/mg protein) ([4]; NADPH, 37° C.): 54 μL/min/mg protein |
| Cc1ccc(-c2nnc3ccc(-c4cccc(NC(=O)c5ccc(F)c(Cl)c5)c4)nn23)o1 [Compound 103, 3-chloro-4-fluoro-N-(3-(3-(5-methylfuran-2-yl)-[1,2,4]triazolo[4,3-b]pyridazin-6-yl)phenyl)benzamide] | 6.37 |  | ≥ 6.00 | pIC50 ([3]; Homo sapiens, 72 h): 5.64; microsomal CLint [4, 9]: 4.5 µL/min/mg |
| Cc1ccc(-c2nnc3ccc(-c4cccc(NC(=O)c5cccc(Cl)c5)c4)nn23)o1 [Compound 119, 3-chloro-N-(3-(3-(5-(methyl-d3)furan-2-yl)-[1,2,4]triazolo[4,3-b]pyridazin-6-yl)phenyl) benzamide] | 5.82 | 5.20 |  |  |
| COc1cccc(C(=O)Nc2cccc(-c3ccc4nnc(-c5ccc(C)o5)n4n3)c2)c1 [Compound 100] | 7.10 | 4.95 | ≥ 6.00 |  |
| CCc1cccc(C(=O)Nc2cccc(-c3ccc4nnc(-c5ccc(C)o5)n4n3)c2)c1 [Compound 111, 3-ethyl-N-(3-(3-(5-methylfuran-2-yl)-[1,2,4]triazolo[4,3-b]pyridazin-6-yl)phenyl) benzamide] |  |  | ≥ 6.00 | MLM clearance [4]: below 50 μL/min/mg protein |
| CCn1c2ccccc2c2cc(Nc3ccnc(NCCCN4CCOCC4)n3)ccc21 [EHop-016] |  |  |  | pIC50 (Rac1 [5]): ~5.00; efficiency as an inhibitor of Rac activity relative to NSC23766 (Rac): 100 fold; systemic exposure [6]: low systemic exposure |
| CCc1cc(C(=O)Nc2cccc(-c3ccc4nnc(-c5ccc(C)o5)n4n3)c2)ccc1F [Compound 114, 3-ethyl-4-fluoro-N-(3-(3-(5-methylfuran-2-yl)-[1,2,4]triazolo[4,3-b]pyridazin-6-yl)phenyl)benzamide] |  |  | ≥ 6.00 | microsomal CLint ([4]; mouse, read-out: MLM clearance): < 50 µL/min/mg |
| Cc1ccc(-c2nnc3ccc(-c4cccc(NC(=O)c5ccc(F)cc5)c4)nn23)s1 [Compound 304] | 6.16 | 4.70 |  | pIC50 (Rac1 [1]; [11]): ≥ 6.00 |
| Cc1ccc(-c2nnc3ccc(-c4cccc(NC(=O)c5cccc(F)c5)c4)nn23)o1 [Compound 105] | 6.82 | 5.70 | ≥ 6.00 | MLM Clearance (μL/min/mg protein) ([4]; NADPH, 37° C.): 38.7 μL/min/mg protein |
| COc1ccc(C(=O)Nc2cccc(-c3ccc4nnc(-c5ccc(C)o5)n4n3)c2)cc1OC [Comparator 1, reference compound] | < 5.30 |  |  | pIC50 (Rac1 [1]; [7]): 5.00 to 6.00 |
| COc1ccc(OC)c(C(=O)Nc2cccc(-c3ccc4nnc(-c5ccc(C)o5)n4n3)c2)c1 [Comparator 3, reference compound] | < 5.30 |  |  | pIC50 (Rac1 [1]; [7]): < 5.00 |
| Cc1ccc(-c2nnc3ccc(-c4cccc(NC(=O)c5cccc(Cl)c5)c4)nn23)s1 [Compound 303] | < 5.30 | < 5.00 |  | pIC50 (Rac1 [1]; [11]): 5.00 to 6.00 |
| Cc1ccc(-c2nnc3ccc(-c4cccc(NC(=O)c5cccc(Cl)c5)c4)nn23)o1 [Compound 102, 3-chloro-N-(3-(3-(5-methylfuran-2-yl)-[1,2,4]triazolo[4,3-b]pyridazin-6-yl)phenyl)benzamide] | 6.28 |  | ≥ 6.00 | pIC50 ([3]; Homo sapiens, 72 h): 5.85; microsomal CLint [4, 9]: 19.7 µL/min/mg; activity against all kinases tested (over 90 kinases): inactive; activity against c-Met (c-M et): inactive |
| Cc1ccc(-c2nnc3ccc(-c4cccc(NC(=O)c5ccc(F)c(F)c5)c4)nn23)o1 [Compound 106] | 6.57 | 5.46 | ≥ 6.00 | MLM clearance [4]: below 50 μL/min/mg protein; MLM Clearance (μL/min/mg protein) ([4]; NADPH, 37° C.): 28.2 μL/min/mg protein |
| Cc1ccc(-c2nnc3ccc(-c4cccc(NC(=O)c5cccc(SC(C)C)c5)c4)nn23)o1 [Compound 109, 3-(isopropylthio)-N-(3-(3-(5-methylfuran-2-yl)-[1,2,4]triazolo[4,3-b]pyridazin-6-yl)phenyl)benzamide] |  |  | ≥ 6.00 |  |
